For one test, the system named is MCF-7 tumors. Nature of the test: Xenograft Assay (MCF-7 Derivative), tamoxifen treatment of MCF-7 tumors. Type of test: in vivo. As to conditions: female nu/nu mice with 17-β estradiol pellets bearing MCF-7 tumors, oral gavage. How it is done:
Female nu/nu mice (with supplemental 17-P3 Estradiol pellets; 0.72 mg; 60 day slow release) bearing MCF-7 tumors (mean tumor volume 200 mm^3) were treated with Tamoxifen (citrate) by oral gavage. Tumor volume (length×width^2/2) and body weight were monitored twice weekly. […] At 120 days of treatment, tamoxifen dose was increased. Rapidly growing tumors were deemed tamoxifen resistant and selected for in vivo passage into new host animals. Tumor Fragments (˜100 mm^3/animal) from the tamoxifen resistant tumors were subcutaneously implanted into the right flank of female nu/nu mice (with 17-P3 Estradiol pellets (0.72 mg; 60 day slow release)). Passaged tumors were maintained under constant Tamoxifen selection and Tumor volume (length×width^2/2) monitored weekly. When tumor volume reached ˜150-250 mm^3, animals were randomized into treatment groups (mean tumor volume 200 mm^3) and tamoxifen treatment was terminated (except for a tamoxifen control arm). Animals were treated with Vehicle or test compound daily for 4 weeks. Tumor volume and body weight were monitored twice weekly for the duration of the study. At the conclusion of the treatment period; plasma and tumor samples were taken for pharmacokinetic and pharmacodynamic analyses, respectively.

For the next test, the system named is MCF-7 cells. Briefly: Breast Cancer Cell Viability Assay (MCF7 Viability Assay). Type of test: cell-based. As to conditions: 5 days' compound exposure, CellTiter-Glo; for IC50: Homo sapiens, MCF7, 120 h. The essentials:
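MCF-7 cells, 320 per well in RPMI with 10% FBS and 20 mM HEPES, adhered overnight, then exposed 5 days to an eleven-point semilog dilution (final 0.3–0.000003 μM). CellTiter-Glo luminescence; % viability relative to untreated cells after subtracting cell-free background.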
A general note: ATP-based viability assays read luminescence as a measure of living cells.

Test [1] has as its target T1, ER-α (Homo sapiens, UniProt P03372).
T1 construct: endogenous in cells; host or cells: MCF-7
T1 sequence (P03372 1-595): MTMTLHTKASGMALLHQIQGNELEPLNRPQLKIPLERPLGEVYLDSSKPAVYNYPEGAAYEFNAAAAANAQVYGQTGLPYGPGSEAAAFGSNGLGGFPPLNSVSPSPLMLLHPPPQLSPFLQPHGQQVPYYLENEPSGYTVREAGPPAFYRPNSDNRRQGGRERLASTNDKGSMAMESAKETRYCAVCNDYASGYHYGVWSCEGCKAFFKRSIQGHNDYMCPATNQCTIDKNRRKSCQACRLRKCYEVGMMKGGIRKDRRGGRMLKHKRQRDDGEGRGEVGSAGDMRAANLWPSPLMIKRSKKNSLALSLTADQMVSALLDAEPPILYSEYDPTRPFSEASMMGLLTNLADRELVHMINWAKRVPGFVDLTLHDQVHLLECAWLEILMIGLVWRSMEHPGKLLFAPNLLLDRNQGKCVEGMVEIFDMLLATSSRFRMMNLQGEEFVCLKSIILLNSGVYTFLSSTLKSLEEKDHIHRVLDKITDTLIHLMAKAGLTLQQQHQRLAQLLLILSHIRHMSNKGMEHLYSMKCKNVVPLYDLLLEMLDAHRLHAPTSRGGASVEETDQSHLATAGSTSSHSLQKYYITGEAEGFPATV
Nature of the test: ER-α In Cell Western Assay (ER1D5). In kind it is cell-based. As to conditions: MCF-7 cells, ER1D5 antibody, 4 or 24 hr post compound addition, read-out: ER In-Cell Western Assay (ER1D5); for Emax: MCF7, Max Response; for DC50: IC50. The essentials:
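MCF-7 cells in RPMI with 10% charcoal-stripped FBS treated with 11-point semilog series (0.3–0.000003 μM final) for 4 or 24 h. Fixed cells stained with ER1D5 plus IRDye 800CW secondary and DRAQ5; ER level = 800/700 nm intensity ratio as % of untreated cells.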

Test [2] deals with T1, ER-α. Nature of the test: ER-α in Cell Western Assay (SP1). As to conditions: MCF-7 cells, SP1 rabbit monoclonal Ab, 4 or 24 hr post compound addition, read-out: ER In-Cell Western Assay (SP1); for Emax: MCF7, Max Response; for DC50: IC50. In kind it is cell-based. The essentials:
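MCF-7 cells in charcoal-stripped FBS medium treated with 11-point semilog dilutions (0.3–0.000003 μM final) for 4 or 24 hr, then fixed and immunostained with SP1 anti-ER antibody. ER signal (800 nm) normalized to DRAQ5 DNA signal (700 nm) and expressed as % of untreated cells.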

Broadly, the IC50 is the midpoint of a concentration-inhibition curve. Read a low IC50 as greater potency in that assay.

Consider `CC/C(=C(\c1ccccc1)c1ccc(OCCN(C)C)cc1)c1ccccc1` [Tamoxifen, tamoxifen], for which, in the test with MCF-7 tumors, the “anti-tumor response (tumor volume)” value is “tumor volume remained static” and the “time at which evident tumor growth was first observed” value is recorded as “approximately 100 days of treatment”.

Consider `CC1=C(c2cccc(O)c2)C(c2ccc(OC[C@H](C)N3CCC3)cc2)Oc2ccc(O)cc21` (stereo partly drawn) [Example 37, 2-(4-((S)-2-(Azetidin-1-yl)propoxy)phenyl)-3-(3-hydroxyphenyl)-4-methyl-2H-chromen-6-ol], for which, in the test with MCF-7 cells, the “MCF7 Viability Assay Max Response” value is recorded as “++ (++ = a single % value ≧50%)” and the IC50 was at most 1 nM. Further, on ER-α [1], the Emax was 40 to 65% and the DC50 was at most 1 nM. On ER-α [2], the Emax lay within 60 to 85% and the DC50 is at most 1 nM.

On to `CC1=C(c2ccc(C)c(O)c2)C(c2ccc(OC[C@H](C)N3CC[C@@H](C)C3)cc2)Oc2ccc(O)cc21` (stereo partly drawn) [Example 39, 3-(3-Hydroxy-4-methylphenyl)-4-methyl-2-(4-((S)-2-((R)-3-methylpyrrolidin-1-yl)propoxy)phenyl)-2H-chromen-6-ol], for which, in the test with MCF-7 cells, the “MCF7 Viability Assay Max Response” value is on record as “++ (++ = a single % value ≧50%)” and the IC50 was above 1 nM. On ER-α [1], the Emax was at least 65% and the DC50 was above 1 nM. In addition, at ER-α [2], the Emax is 60 to 85% and the DC50 is above 1 nM.

Regarding `CC1=C(c2cccc(O)c2)C(c2ccc(OC[C@@H](C)N3CC[C@@H](C)C3)cc2)Oc2ccc(O)cc21` (stereo partly drawn) [Example 10, 3-(3-Hydroxyphenyl)-4-methyl-2-(4-((R)-2-((R)-3-methylpyrrolidin-1-yl)propoxy)phenyl)-2H-chromen-6-ol], in the test with MCF-7 cells, the “MCF7 Viability Assay Max Response” value is reported as “+ (+ = a single % value <50%)” and the IC50 was at most 1 nM. Also, on ER-α [1], the Emax was below 40% and the DC50 was at most 1 nM. Further, at ER-α [2], the Emax lay in the range of 60 to 85% and the DC50 is at most 1 nM.

As to `CC1=C(c2ccccc2C)C(c2ccc(OC[C@H](C)N3CC[C@@H](C)C3)cc2)Oc2ccc(O)cc21` (stereo partly drawn) [Example 56, 4-Methyl-2-(4-((S)-2-((R)-3-methylpyrrolidin-1-yl)propoxy)phenyl)-3-(o-tolyl)-2H-chromen-6-ol], in the test on MCF-7 cells, the “MCF7 Viability Assay Max Response” value is on record as “++ (++ = a single % value ≧50%)” and the IC50 was at most 1 nM. Also, on ER-α [1], the Emax was at least 65% and the DC50 was at most 1 nM. For the same compound, at ER-α [2], the Emax lay within 60 to 85% and the DC50 was at most 1 nM.

For `CC1=C(c2cccc(O)c2)C(c2ccc(OCCN3CCC3)cc2)Oc2ccc(O)cc21` (centres unmarked) [Example 38, 2-(4-(2-(Azetidin-1-yl)ethoxy)phenyl)-3-(3-hydroxyphenyl)-4-methyl-2H-chromen-6-ol], in the test with MCF-7 cells, the “MCF7 Viability Assay Max Response” value is listed as “++ (++ = a single % value ≧50%)” and the 50% inhibitory concentration (IC50) was at most 1 nM. Further, at ER-α [1], the Emax lay within 40 to 65% and the DC50 is at most 1 nM. Besides, at ER-α [2], the Emax was 60 to 85% and the DC50 is at most 1 nM.

Regarding `CC1=C(c2ccc(Br)cc2)C(c2ccc(OC[C@H](C)N3CC[C@@H](C)C3)cc2)Oc2ccc(O)cc21` (stereo partly drawn) [Example 54, 3-(4-Bromophenyl)-4-methyl-2-(4-((S)-2-((R)-3-methylpyrrolidin-1-yl)propoxy)phenyl)-2H-chromen-6-ol], in the test with MCF-7 cells, the “MCF7 Viability Assay Max Response” value is listed as “++ (++ = a single % value ≧50%)” and the IC50 is above 1 nM. On ER-α [1], the Emax is at least 65% and the DC50 is above 1 nM. For the same compound, at ER-α [2], the Emax fell in the range of 60 to 85% and the DC50 is above 1 nM.

As for `CC1=C(c2ccc(O)cc2)C(c2ccc(OC[C@H](C)N3CC[C@@H](C)C3)cc2)Oc2ccc(O)cc21` (stereo partly drawn) [Example 31, 3-(4-Hydroxyphenyl)-4-methyl-2-(4-((S)-2-((R)-3-methylpyrrolidin-1-yl)propoxy)phenyl)-2H-chromen-6-ol], in the test on MCF-7 cells, the “MCF7 Viability Assay Max Response” value is “++ (++ = a single % value ≧50%)” and the IC50 was at most 1 nM. Further, on ER-α [1], the Emax is at least 65% and the DC50 was at most 1 nM. Moreover, at ER-α [2], the Emax was at least 85% and the DC50 is at most 1 nM.

Take `CC1=C(c2cccc(O)c2)C(c2ccc(OC[C@H](C)N3CCC(C)(C)C3)cc2)Oc2ccc(O)cc21` (stereo partly drawn) [Example 18, 2-(4-((S)-2-(3,3-Dimethylpyrrolidin-1-yl)propoxy)phenyl)-3-(3-hydroxyphenyl)-4-methyl-2H-chromen-6-ol]: in the test with MCF-7 cells, the “MCF7 Viability Assay Max Response” value was “++ (++ = a single % value ≧50%)” and the half-maximal inhibitory concentration (IC50) was at most 1 nM. On ER-α [1], the Emax is at least 65% and the DC50 is at most 1 nM. Further, on ER-α [2], the Emax lay in the range of 60 to 85% and the DC50 is at most 1 nM.

With `CC1=C(c2cccc(O)c2)C(c2ccc(OCCN3CCCCC3)cc2)Oc2ccc(O)cc21` (centres unmarked) [Example 9, 3-(3-Hydroxyphenyl)-4-methyl-2-(4-(2-piperidylethoxy)phenyl)-2H-chromen-6-ol], in the test on MCF-7 cells, the “MCF7 Viability Assay Max Response” value is “++ (++ = a single % value ≧50%)” and the IC50 is at most 1 nM. Besides, at ER-α [1], the Emax was 40 to 65% and the DC50 was at most 1 nM. On ER-α [2], the Emax was 60 to 85% and the DC50 was at most 1 nM.

On to `CNCCOc1ccc(C2Oc3ccc(O)cc3C(C)=C2c2cccc(O)c2)cc1` (centres unmarked) [Example 3, 3-(3-Hydroxyphenyl)-4-methyl-2-(4-(2-(methylamino)ethoxy)phenyl)-2H-chromen-6-ol], for which, in the test on MCF-7 cells, the “MCF7 Viability Assay Max Response” value is listed as “++ (++ = a single % value ≧50%)” and the IC50 was at most 1 nM. Moreover, on ER-α [1], the Emax was below 40% and the DC50 is at most 1 nM. Further, at ER-α [2], the Emax is below 60% and the DC50 was at most 1 nM.

Consider `CC1=C(c2ccc(F)c(O)c2)C(c2ccc(OC[C@H](C)N3CC[C@@H](C)C3)cc2)Oc2ccc(O)cc21` (stereo partly drawn) [Example 57, 3-(4-Fluoro-3-hydroxyphenyl)-4-methyl-2-(4-((S)-2-((R)-3-methylpyrrolidin-1-yl)propoxy)phenyl)-2H-chromen-6-ol], for which, in the test with MCF-7 cells, the “MCF7 Viability Assay Max Response” value was “++ (++ = a single % value ≧50%)” and the IC50 was at most 1 nM. Besides, on ER-α [1], the Emax was at least 65% and the DC50 is at most 1 nM. At ER-α [2], the Emax is at least 85% and the DC50 is at most 1 nM.

As to `CC1=C(c2cccc(O)c2)[C@@H](c2ccc(OC[C@H](C)N3CC[C@@H](C)C3)cc2)Oc2ccc(O)cc21` (single isomer, unassigned) [Example 2b], in the test on MCF-7 cells, the “MCF7 Viability Assay Max Response” value is “++ (++ = a single % value ≧50%)” and the IC50 is above 1 nM. Also, on ER-α [1], the Emax is at least 65% and the DC50 is above 1 nM. At ER-α [2], the Emax was at least 85% and the DC50 was above 1 nM.

Source of the values: patent US9078871B2, “Estrogen receptor modulators and uses thereof” (SERAGON PHARMACEUTICALS, INC., priority 2010, dated 2015).
